Measured values as given in PubChem BioAssay AID330 (DTP/NCI, 2004).
Values joined by “and” are separate entries in the source; they are usually repeats but may differ in a detail not shown here. Identical values can stand only once. Inconclusive results and toxic doses are left out. The calls were made as follows: active = survival T/C of 150% or more; inactive = T/C below 125% in these data.

Tested on: P388 leukemia ip, CD2F1 mice, survival T/C
Assay: NCI In Vivo Anticancer Drug Screen. Data for tumor model P388 Leukemia (intraperitoneal) in CD2F1 (CDF1) mice
Settings: endpoint: median survival time, higher = longer survival
Procedure, shortened: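 Mice carrying the transplanted tumor received test compound or vehicle. Survival was recorded in each group, and the value is the treated-group measurement divided by that of the vehicle-treated control group.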

[1] = dose: 12.5 mg/kg/injection, schedule: Q01DX009 (ip), vehicle: Klucel (hydroxypropylcellulose) (HPC)
[2] = dose: 25.0 mg/kg/injection, schedule: Q01DX009 (ip), vehicle: Klucel (hydroxypropylcellulose) (HPC)
[3] = dose: 50.0 mg/kg/injection, schedule: Q01DX009 (ip), vehicle: Klucel (hydroxypropylcellulose) (HPC)
[4] = dose: 100.0 mg/kg/injection, schedule: Q01DX009 (ip), vehicle: Klucel (hydroxypropylcellulose) (HPC)
[5] = dose: 12.5 mg/kg/injection, schedule: Q01DX009 (ip), vehicle: saline with Tween-80
[6] = dose: 25.0 mg/kg/injection, schedule: Q01DX009 (ip), vehicle: saline with Tween-80
[7] = dose: 50.0 mg/kg/injection, schedule: Q01DX009 (ip), vehicle: saline with Tween-80
[8] = dose: 50.0 mg/kg/injection, schedule: Q01DX009 (ip), vehicle: saline
[9] = dose: 50.0 mg/kg/injection, schedule: Q01DX005 (ip), vehicle: saline with Tween-80
[10] = dose: 100.0 mg/kg/injection, schedule: Q01DX005 (ip), vehicle: saline with Tween-80

Measured: T/C

COc1cccc2c1C(=O)c1c(O)c3c(c(O)c1C2=O)C[C@@](O)(C(C)=O)C[C@@H]3OC1CC(NCc2ccccc2)C(O)C(C)O1 (stereo partly drawn)
inactive: dose: 0.78 mg/kg/injection, schedule: Q01DX009 (ip), vehicle: water 114 % of control | dose: 2.35 mg/kg/injection, schedule: Q04DX003 (ip), vehicle: water 106 % of control | dose: 12.5 mg/kg/injection, schedule: Q01DX009 (ip), vehicle: water 94 % of control | dose: 18.0 mg/kg/injection, schedule: Q04DX003 (ip), vehicle: water 115 % of control | dose: 37.5 mg/kg/injection, schedule: Q04DX003 (ip), vehicle: water 116 % of control | dose: 75.0 mg/kg/injection, schedule: Q04DX003 (ip), vehicle: water 95 % of control
active: dose: 1.56 mg/kg/injection, schedule: Q01DX009 (ip), vehicle: water 161 % of control and 162 % of control | dose: 3.13 mg/kg/injection, schedule: Q01DX009 (ip), vehicle: water 166 % of control and 185 % of control | dose: 6.48 mg/kg/injection, schedule: Q04DX003 (ip), vehicle: water 166 % of control | dose: 9.4 mg/kg/injection, schedule: Q04DX003 (ip), vehicle: water 153 % of control | dose: 10.8 mg/kg/injection, schedule: Q04DX003 (ip), vehicle: water 204 % of control | dose: 18.8 mg/kg/injection, schedule: Q04DX003 (ip), vehicle: water 169 % of control

O=c1[nH]cnc2c1nc(Br)n2C1OC(CO)C(O)C1O (stereo not drawn)
inactive: dose: 6.25 mg/kg/injection, schedule: Q01DX009 (ip), vehicle: Klucel (hydroxypropylcellulose) (HPC) 94 % of control | [1] 94 % of control | [2] 94 % of control | [3] 97 % of control | [4] 94 % of control

N=C(N)SCC(=O)n1ccc(=O)n(C(=O)CSC(=N)N)c1=O
inactive: dose: 100.0 mg/kg/injection, schedule: Q04DX002 (ip), vehicle: saline 100 % of control | dose: 200.0 mg/kg/injection, schedule: Q04DX002 (ip), vehicle: saline 100 % of control | dose: 400.0 mg/kg/injection, schedule: Q04DX002 (ip), vehicle: saline 96 % of control

O=C(SC(O)c1ccc(Cl)cc1)c1ccccc1 (stereo not drawn)
inactive: [3] 99 % of control | [4] 106 % of control | dose: 200.0 mg/kg/injection, schedule: Q01DX009 (ip), vehicle: Klucel (hydroxypropylcellulose) (HPC) 105 % of control

CCCCCOc1ccc(C(=O)/C(Br)=C/C(=O)O)cc1
inactive: [5] 104 % of control | [6] 109 % of control | [7] 123 % of control

CN1CCN(N=Nc2ccccc2Cl)CC1
inactive: dose: 12.5 mg/kg/injection, schedule: Q01DX009 (ip), vehicle: saline 99 % of control | dose: 25.0 mg/kg/injection, schedule: Q01DX009 (ip), vehicle: saline 111 % of control | [8] 103 % of control and 98 % of control

COC(=O)Nc1nc2cc(Cl)c(Cl)cc2[nH]1
inactive: [6] 103 % of control and 92 % of control | [7] 105 % of control and 123 % of control and 124 % of control | dose: 100.0 mg/kg/injection, schedule: Q01DX009 (ip), vehicle: saline with Tween-80 111 % of control | dose: 200.0 mg/kg/injection, schedule: Q01DX009 (ip), vehicle: saline with Tween-80 114 % of control | dose: 400.0 mg/kg/injection, schedule: Q01DX009 (ip), vehicle: saline with Tween-80 112 % of control | dose: 600.0 mg/kg/injection, schedule: Q01DX009 (ip), vehicle: saline with Tween-80 119 % of control

OC1CCN(c2c3ccccc3nc3ccccc23)CC1
inactive: dose: 12.5 mg/kg/injection, schedule: Q04DX002 (ip), vehicle: saline 105 % of control | dose: 25.0 mg/kg/injection, schedule: Q04DX002 (ip), vehicle: saline 113 % of control

CC12CCC3C(CCC4=CC(OC5OCC(O)C(O)C5O)CCC43C=O)C1(O)CCC2C1=CC(=O)OC1 (stereo not drawn)
inactive: dose: 1.0 mg/kg/injection, schedule: Q01DX009 (ip), vehicle: Klucel (hydroxypropylcellulose) (HPC) 99 % of control | dose: 2.0 mg/kg/injection, schedule: Q01DX009 (ip), vehicle: Klucel (hydroxypropylcellulose) (HPC) 105 % of control | dose: 4.0 mg/kg/injection, schedule: Q01DX009 (ip), vehicle: Klucel (hydroxypropylcellulose) (HPC) 97 % of control | dose: 8.0 mg/kg/injection, schedule: Q01DX009 (ip), vehicle: Klucel (hydroxypropylcellulose) (HPC) 108 % of control

Cc1ccc(C(=O)CSCC(=O)c2ccc(C)cc2)cc1
inactive: dose: 50.0 mg/kg/injection, schedule: Q01DX005 (ip), vehicle: Klucel (hydroxypropylcellulose) (HPC) 87 % of control | dose: 100.0 mg/kg/injection, schedule: Q01DX005 (ip), vehicle: Klucel (hydroxypropylcellulose) (HPC) 86 % of control | dose: 200.0 mg/kg/injection, schedule: Q01DX005 (ip), vehicle: Klucel (hydroxypropylcellulose) (HPC) 94 % of control

C=CC(c1ccccc1)C(O)(Cc1ccccc1)Cc1ccccc1 (stereo not drawn)
inactive: dose: 6.25 mg/kg/injection, schedule: Q01DX009 (ip), vehicle: DMSO 104 % of control | dose: 12.5 mg/kg/injection, schedule: Q01DX009 (ip), vehicle: DMSO 99 % of control | dose: 25.0 mg/kg/injection, schedule: Q01DX009 (ip), vehicle: DMSO 95 % of control

NC(=O)C12OC3CC(CC(C3)O1)O2
inactive: dose: 60.0 mg/kg/injection, schedule: Q01DX005 (ip), vehicle: saline 117 % of control | dose: 120.0 mg/kg/injection, schedule: Q01DX005 (ip), vehicle: saline 98 % of control | dose: 240.0 mg/kg/injection, schedule: Q01DX005 (ip), vehicle: saline 99 % of control

CCOc1cccc2c(NCCCCCCCCNc3c4ccccc4nc4c(OCC)cccc34)c3ccccc3nc12
active: dose: 3.75 mg/kg/injection, schedule: Q01DX009 (ip), vehicle: other 166 % of control | dose: 7.5 mg/kg/injection, schedule: Q01DX009 (ip), vehicle: other 157 % of control

CCCCCC(C)N(C)C(=O)CNCC(C)C (stereo not drawn)
inactive: [9] 100 % of control | [10] 108 % of control

CC1(C)CCC2=C(O1)c1ccccc1C(=O)C2=O
inactive: [1] 96 % of control | [2] 105 % of control and 94 % of control | [3] 114 % of control and 96 % of control | [4] 115 % of control

O=C(O)CCC12CCCCC1=NC1(CCCCC1)NC2=O (stereo not drawn)
inactive: dose: 60.0 mg/kg/injection, schedule: Q01DX005 (ip), vehicle: Klucel (hydroxypropylcellulose) (HPC) 104 % of control | dose: 60.0 mg/kg/injection, schedule: Q02DX002 (ip), vehicle: Klucel (hydroxypropylcellulose) (HPC) 102 % of control | dose: 120.0 mg/kg/injection, schedule: Q01DX005 (ip), vehicle: Klucel (hydroxypropylcellulose) (HPC) 100 % of control | dose: 120.0 mg/kg/injection, schedule: Q02DX002 (ip), vehicle: Klucel (hydroxypropylcellulose) (HPC) 97 % of control | dose: 240.0 mg/kg/injection, schedule: Q01DX005 (ip), vehicle: Klucel (hydroxypropylcellulose) (HPC) 100 % of control | dose: 240.0 mg/kg/injection, schedule: Q02DX002 (ip), vehicle: Klucel (hydroxypropylcellulose) (HPC) 103 % of control

Cc1coc2c1CCC(C)C2 (stereo not drawn)
inactive: [5] 92 % of control | [6] 107 % of control | [7] 100 % of control and 110 % of control

O/N=C1\CN2CCC1CC2
inactive: dose: 50.0 mg/kg/injection, schedule: Q01DX005 (ip), vehicle: saline 110 % of control | dose: 100.0 mg/kg/injection, schedule: Q01DX005 (ip), vehicle: saline 105 % of control

CCCNC(=O)/C(C)=C(\C)c1ccccc1
inactive: dose: 50.0 mg/kg/injection, schedule: Q04DX003 (ip), vehicle: Klucel (hydroxypropylcellulose) (HPC) 100 % of control | dose: 100.0 mg/kg/injection, schedule: Q04DX003 (ip), vehicle: Klucel (hydroxypropylcellulose) (HPC) 99 % of control | dose: 200.0 mg/kg/injection, schedule: Q04DX003 (ip), vehicle: Klucel (hydroxypropylcellulose) (HPC) 100 % of control

COc1cc(O)c(C(C)=O)c2c1C=CC(C)(C)O2
inactive: [9] 102 % of control | [10] 105 % of control | dose: 200.0 mg/kg/injection, schedule: Q01DX005 (ip), vehicle: saline with Tween-80 100 % of control

CC(=O)Nc1ccc(N=Nc2c(O)c(S(=O)(=O)O)cc3cc(S(=O)(=O)O)ccc23)cc1
inactive: [8] 102 % of control | dose: 100.0 mg/kg/injection, schedule: Q01DX009 (ip), vehicle: saline 97 % of control | dose: 200.0 mg/kg/injection, schedule: Q01DX009 (ip), vehicle: saline 103 % of control
